Assays:
[1] = biological target: T1, Uracil reductase (dihydropyrimidine dehydrogenase, EC 1.3.1.2) (Bos taurus, UniProt Q28007); test: Determination of uracil reductase inactivation; type: biochemical, bovine
T1 construct: purified from bovine liver; from tissue; host or cells: bovine liver
T1 sequence (Q28007 1-1025): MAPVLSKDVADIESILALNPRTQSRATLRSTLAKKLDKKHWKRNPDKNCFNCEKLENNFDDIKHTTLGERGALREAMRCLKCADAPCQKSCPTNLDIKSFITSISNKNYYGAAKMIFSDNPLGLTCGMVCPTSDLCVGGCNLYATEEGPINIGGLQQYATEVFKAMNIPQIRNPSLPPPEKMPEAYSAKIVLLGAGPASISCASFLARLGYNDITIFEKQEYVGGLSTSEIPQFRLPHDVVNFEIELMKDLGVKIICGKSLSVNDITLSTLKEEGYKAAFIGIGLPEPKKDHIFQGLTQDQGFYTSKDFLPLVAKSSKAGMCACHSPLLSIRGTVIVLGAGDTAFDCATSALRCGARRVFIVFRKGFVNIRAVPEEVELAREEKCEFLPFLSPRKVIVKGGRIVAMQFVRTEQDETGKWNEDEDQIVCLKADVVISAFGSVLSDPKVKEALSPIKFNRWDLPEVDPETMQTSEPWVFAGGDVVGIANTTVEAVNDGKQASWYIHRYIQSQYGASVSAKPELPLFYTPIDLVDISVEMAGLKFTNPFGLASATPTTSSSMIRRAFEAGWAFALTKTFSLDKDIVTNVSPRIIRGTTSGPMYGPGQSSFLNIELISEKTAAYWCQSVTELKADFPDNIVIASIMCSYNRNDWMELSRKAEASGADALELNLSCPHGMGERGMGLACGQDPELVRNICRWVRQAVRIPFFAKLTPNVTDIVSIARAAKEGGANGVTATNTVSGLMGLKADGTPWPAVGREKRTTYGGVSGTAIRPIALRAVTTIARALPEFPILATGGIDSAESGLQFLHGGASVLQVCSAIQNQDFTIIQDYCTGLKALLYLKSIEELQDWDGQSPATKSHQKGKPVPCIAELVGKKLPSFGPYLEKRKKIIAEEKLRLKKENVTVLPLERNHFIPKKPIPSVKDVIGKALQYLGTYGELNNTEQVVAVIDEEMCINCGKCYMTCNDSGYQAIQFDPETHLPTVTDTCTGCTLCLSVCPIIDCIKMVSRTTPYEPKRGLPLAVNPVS
Protocol: Uracil reductase (1 micromolar) (dihydropyrimidine dehydrogenase, EC 1.3.1.2) purified from bovine liver was incubated with 100 micromolar inactivator and 5 mM dithiothreitol (enzyme reductant) at 37° for 30 minutes in 0.05 M Tris-HCl at pH 8.0. The enzyme and inactivator were diluted 100-fold into the assay buffer, which contained 200 micromolar NADPH, 200 micromolar thymine and 1 mM dithiothreitol in Tris-HCl at pH 8.0. The velocity of the enzyme was determined spectrophotometrically. These velocities have been corrected for NADPH oxidase activity, which was less than […] of the rate of thymine-dependent oxidation of NADPH. The % inactivation of the enzyme was equal to 100% minus the percent of enzymatic activity remaining. Enzyme incubated without inhibitor was stable under these conditions. Parenthetical values are the relative first-order rate constants for inactivation of enzyme determined from similar experiments where the fractional activity was measured as a function of the time of incubation of 50 micromol inactivator with enzyme.

[2] = Effect on plasma FU level, mice; type: in vivo; details: 5-FU p.o. or i.p., EU 2 mg/kg i.p. 90 minutes prior to 5-FU
Protocol: Mice were dosed either orally (p.o.) or interperitoneally (i.p.) with 5-fU. 5-ethynyluracil (EU) at 2mg/kg was dosed i.p. 90 minutes prior to the 5-FU.
In addition, the usual variability in plasma FU in rats orally dosed with FU at 50 mg/kg was eliminated by EU pretreatment.

[3] = biological target: T2, uracil reductase (Mus musculus, UniProt Q8CHR6); test: Inactivation of uracil reductase in vivo (plasma uracil and thymine), mice
T2 construct: from tissue; host or cells: whole animal (mouse), endogenous enzyme
T2 sequence (Q8CHR6 1-1025): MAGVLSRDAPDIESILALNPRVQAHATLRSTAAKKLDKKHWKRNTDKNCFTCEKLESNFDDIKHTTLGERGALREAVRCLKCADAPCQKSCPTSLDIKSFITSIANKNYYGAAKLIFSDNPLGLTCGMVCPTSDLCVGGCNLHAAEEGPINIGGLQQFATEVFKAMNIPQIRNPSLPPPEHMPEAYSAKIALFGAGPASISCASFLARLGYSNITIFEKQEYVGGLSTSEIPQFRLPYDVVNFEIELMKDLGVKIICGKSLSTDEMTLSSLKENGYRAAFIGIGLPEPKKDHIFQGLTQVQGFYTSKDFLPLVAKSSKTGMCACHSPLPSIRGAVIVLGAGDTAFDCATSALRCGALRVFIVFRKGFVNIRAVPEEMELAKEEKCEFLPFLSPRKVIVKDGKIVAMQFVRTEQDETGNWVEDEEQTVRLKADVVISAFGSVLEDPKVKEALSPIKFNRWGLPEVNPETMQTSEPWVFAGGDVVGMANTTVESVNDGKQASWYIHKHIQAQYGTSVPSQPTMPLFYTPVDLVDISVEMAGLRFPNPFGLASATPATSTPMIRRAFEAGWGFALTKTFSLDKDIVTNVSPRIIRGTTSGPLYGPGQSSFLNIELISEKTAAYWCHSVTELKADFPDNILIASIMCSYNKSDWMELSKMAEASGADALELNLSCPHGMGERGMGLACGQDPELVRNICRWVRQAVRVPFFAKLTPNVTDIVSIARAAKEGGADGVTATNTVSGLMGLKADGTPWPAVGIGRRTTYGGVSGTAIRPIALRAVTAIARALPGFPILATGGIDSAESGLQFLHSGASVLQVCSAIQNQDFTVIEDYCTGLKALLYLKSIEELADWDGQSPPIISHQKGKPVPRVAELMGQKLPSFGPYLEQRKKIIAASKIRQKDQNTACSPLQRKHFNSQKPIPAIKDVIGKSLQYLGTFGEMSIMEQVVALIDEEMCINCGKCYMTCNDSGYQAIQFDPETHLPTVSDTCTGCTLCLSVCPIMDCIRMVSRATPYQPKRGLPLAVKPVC
Protocol: The maximum effect occurred at about 0.1 mg/kg p.o. in rats, at 0.5 to 1 mg/kg s.c. in mice, and at approximately 1 mg/kg intravenously (i.v.) in dogs and probably represents total inactivation of uracil reductase. These doses elevated mouse, dog, and rat plasma uracil from about 3 uM to about 50-60 uM. […] The ED50 equals 0.01 mg/kg.

- relative first-order rate constants for inactivation of enzyme (parenthetical values) ([1]; 50 micromol inactivator, fractional activity vs time of incubation): (100)
- inhibition at 100 µM ([1]; 0.5 h, 100 micromolar inactivator, 1 micromolar enzyme, 5 mM dithiothreitol, 37° for 30 minutes, pH 8.0, read-out: % Inactivation): 100%
- plasma levels of 5-fluorouracil [2]: increased
- dose at which the maximum effect on plasma uracil and thymine occurred ([3]; mice, s.c.): 0.5 to 1 mg/kg
- plasma uracil ([3]; mouse, at dose of maximum effect, elevated from about 3 uM): 50 to 60 µM
SMILES: C#Cc1c[nH]c(=O)[nH]c1=O [5-ethynyluracil]

Reference: patent US7704971B2, “Uracil reductase inactivators” (SmithKlineBeecham Corporation, priority 1990, dated 2010)
